Measurements: the METLIN SMRT retention time set (Domingo-Almenara et al. 2019)

Test: gradient 5% acetonitrile 3 min, to 50% in 2 min, to 85% in 15 min, held 3 min, 100 µL/min
Conditions: column: Zorbax Extend-C18 2.1 x 50 mm; eluents: water / acetonitrile, 0.1% formic acid
Summary of the method: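 Over 3 months, pure standards in mixtures of ~100 molecules were run by HPLC coupled to a quadrupole time-of-flight mass spectrometer in positive and negative ionization mode. The column was a Zorbax Extend-C18 (2.1 × 50 mm, 1.8 μm) at 100 μL/min, eluted with water and acetonitrile each holding 0.1% formic acid, with 40 μL dead and 900 μL dwell volumes. Retention time was determined from adduct peaks chosen by software and checked manually.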

SMILES | RP-LC retention time
CCc1ccc(Nc2c(C(=O)N3CCC(C)CC3)cnc3nc(C)ccc23)cc1 | 699 s
COc1ccc(-n2nc(C(=O)Nc3ccc4c(c3)OCCO4)c(=O)cc2OC)cc1 | 758 s
Cc1cc(N2CCN(C)CC2)nc2ccc(NC(=O)Nc3cccc(Cl)c3)cc12 | 590 s
Cc1sc(C)c(S(=O)(=O)N2CCc3ccccc3C2)c1-c1cc(C(F)(F)F)on1 | 1280 s
Cc1cc(C(=O)N2CC(N(C(=O)NC(C)C)C3CCOCC3)C2)nn1C | 576 s
O=C1CC(C(=O)N2CCCCCC2)CN1CCc1ccccc1 (stereo not given) | 760 s
Cc1ccc(-c2cc(C(F)(F)F)n3nc(C(=O)O)cc3n2)cc1 | 943 s
O=C(c1cccs1)N1CCC(c2noc(-c3cnccn3)n2)C1 (stereo not given) | 678 s
COc1ccccc1N1CCN(c2cc(SCC(=O)Nc3c(C)cccc3C)ncn2)CC1 | 958 s
Cc1cc(N(C)C)n2nc(CN3CCN(c4ccccc4)CC3)nc2n1 | 607 s
Cc1nc2ccn(Cc3cccnc3)c(=O)c2cc1C(=O)NCCc1c[nH]c2ccccc12 | 626 s
O=C(NCc1cccnc1)c1c2c(nc3ccccc13)C(=O)N(C1CCCCC1)C2 | 612 s
O=C(Nc1nc2c(s1)CN(Cc1ccccc1)CC2)c1cccc(N2C(=O)CCC2=O)c1 | 548 s
CCCSCCCNC(=O)Cn1cnc2nc3c(cc2c1=O)CCCC3 | 739 s
Cc1ccc(C(=O)Nc2nc(C)cc(C)c2-c2noc(C)n2)cc1 | 743 s
COc1ncccc1CNC(=O)COc1ccccc1 | 677 s
O=C(c1ccco1)N1CCN=C1N1CCN(c2cccc(Cl)c2)CC1 | 696 s
CNC(=O)c1cccn1Cc1ccc(F)cc1 | 791 s
Cc1cc(C)n(CCNC(=O)c2ccc3nsnc3c2)n1 | 638 s
CC(C)NC(=O)c1ccc(OCC2CCN(C(=O)Cc3ccccc3F)CC2)cc1 | 870 s
Cn1c(CN2CCN(C(=O)Cc3ccc(Cl)cc3)CC2)nc2cc(C(=O)N3CCCC3)ccc21 | 646 s
CCc1cc(=O)n(CC(=O)N2CCCc3ccccc32)c(-n2nc(C)cc2C)n1 | 993 s
CCOC(=O)Cc1c(C)nc2c(-c3ccccc3)cnn2c1C | 1000 s

SMILES | RP-LC retention time
COc1ccc(-n2c(CN3CCN(C(=O)NC(C)(C)C)CC3)nc3cccnc32)cc1 | 640 s
Cc1ccccc1Cn1cc(-c2ccncc2)cc1C(=O)NC(C)c1ccccn1 (stereo not given) | 600 s
Cc1nccn1-c1ccc(N2CCN(C(=O)c3cc4ccccc4o3)CC2)nn1 | 560 s
COc1ccccc1-c1noc(-c2nnn(Cc3nc(-c4ccccc4OC)oc3C)c2C)n1 | 1060 s
Cc1c(CN2CCSCC2)nnn1-c1ccccc1 | 583 s
O=C1C(c2cccnc2)N(CC2CCCCC2)C(=O)CN1c1ccccc1 (stereo not given) | 771 s
COc1ccc(Cn2nc3c(S(=O)(=O)N4CCOCC4)cccn3c2=O)cc1 | 734 s
Cc1cccc(NC(=O)c2cccn2Cc2noc(C3CC3)n2)c1C | 954 s
COc1ccc(N2CCN(c3cc(SCC(=O)Nc4cc(C)ccc4C)ncn3)CC2)cc1 | 1020 s
CCCC(=O)NC1CCN(c2ccc(F)cc2)C1=O (stereo not given) | 659 s
O=C(COc1ccc(F)cc1)NCC(=O)N1CCN(c2ccccn2)CC1 | 609 s
O=C(NC1CCN(c2cc(-c3ccc(Cl)cc3)[nH]n2)C1)c1ccccn1 (stereo not given) | 751 s
CSc1cccc(NC(=O)Cn2c(=O)n(-c3ccc(C)cc3)c(=O)c3c2cc(C)n3C)c1 | 910 s
O=C(O)c1cccn2c(=O)c3ccccc3nc12 | 627 s
COc1cccc(CNC(=O)C2(C)CCCN(C(=O)Nc3ccc(Br)cc3)C2)c1 (stereo not given) | 969 s
CCc1ccc(-c2csc(Nc3ccc(F)cn3)n2)cc1 | 1190 s
CCCCC1CCC(C(=O)Nc2nc(-c3ccc4c(c3)N(C)C(=O)CO4)c(C)s2)CC1 (stereo not given) | 1410 s
Cn1cnc(S(=O)(=O)N2CCC(C(=O)N3CCCCCC3)CC2)c1 | 638 s
CCc1nc(-c2cc(S(=O)(=O)NCC(=O)N3CCN(c4ccc(F)cc4)CC3)c(C)s2)no1 | 959 s
CN(C)C(=O)c1ccc2c(c1)nc(CN(C)C(=O)Nc1ccccc1Br)n2C | 618 s
O=C(NCCc1ccccc1)c1cn2c3c(ccc(Cl)c3c1=O)OCC2 | 880 s
CC(C)C(=O)Nc1ccc(-n2cnc(C(=O)NC(C)c3ccc(F)cc3)c2)nc1 (stereo not given) | 777 s
O=C(Nc1ccc2nc3n(c(=O)c2c1)CCC3)Nc1ccc(F)cc1F | 686 s

SMILES | RP-LC retention time
O=C(NCCCN1CCCC1=O)c1csc(N2CCN(c3ccc(F)cc3)CC2)n1 | 714 s
Cc1ccc(-n2c(=O)c3sccc3n(Cc3nc(-c4ccc(F)cc4)no3)c2=O)cc1 | 1030 s
Cc1ccc(C)c(-n2ccn(Cc3nc(-c4ccc(F)c(Cl)c4)no3)c(=O)c2=O)c1 | 1010 s
O=C(NCC1CCCO1)N1CCCn2nc(-c3ccncc3)cc2C1 (stereo not given) | 551 s
CC1CCCN(C(=O)c2cn(-c3ccc(-c4nc(C5CC5)no4)cn3)cn2)C1 (stereo not given) | 840 s
CCn1nccc1C(=O)NCC1Cn2cccc2C(=O)N1CC(C)C (stereo not given) | 698 s
COc1ccc(C2CCCCCN2S(C)(=O)=O)cc1 (stereo not given) | 932 s
CSc1ccc(-c2nc3ccc(C)cn3c2Nc2ccc(Cl)cc2)cc1 | 693 s
O=C(c1ccc2c(c1)OCO2)N(c1ccc(Br)cc1)C1C=CS(=O)(=O)C1 (stereo not given) | 779 s
CCc1ccccc1NC(=O)C1CCN(S(=O)(=O)c2c(C)nn(-c3ccccc3)c2C)CC1 | 985 s
COc1ccc2c(c1)C=C(C(=O)NC1CCCC1)C=CO2 | 918 s
COCc1nncn1C1CCN(C(=O)c2cc(F)cc(F)c2)CC1 | 628 s
CN1C(=O)c2cc(S(=O)(=O)Nc3ccc4c(c3)OCO4)ccc2Oc2cccnc21 | 850 s
CN1CCN(c2ccc(-c3cccc(NC(=O)c4ccccc4F)c3)nn2)CC1 | 693 s
Cc1nnc(-c2cn(CC(=O)Nc3ccccc3F)c3ccccc23)o1 | 799 s
CCOC(=O)COc1cc(-c2ccccc2)nc2ccc(NC(=O)COC)cc12 | 695 s
Cc1ccc(-n2nnnc2CNC(=O)Nc2ccc(Cl)c(Cl)c2)cc1C | 944 s
CCCNC(=O)c1cc(N2CCCC2)n2nccc2n1 | 792 s
Cc1ccc(-c2nnc(Cc3nc(-c4ccccc4C)no3)o2)cc1C | 842 s
CCN1C(=O)c2cc(NC(=O)c3ccc(Br)o3)ccc2Oc2ccccc21 | 908 s
CN(C)CC1(O)CCC2(CCN(C(=O)CCC3CCCC3)CC2)CC1 | 639 s
Cc1ccc(NC(=O)C(=O)NCC2(O)CCOCC2)cc1N1CCCC1=O | 575 s
Cc1ccccc1NC(=O)NC1CCN(C(=O)C2CC2)C1 (stereo not given) | 660 s

SMILES | RP-LC retention time
CCCNC(=O)C1CCCN(c2nc3ncn(CC(=O)Nc4ccc(Cl)cc4)c(=O)c3s2)C1 (stereo not given) | 741 s
CCOCC(=O)N1CC(c2nc(CCOCC3CCOCC3)no2)C1 | 644 s
CCn1cc(-c2ccc(C)cc2)cc1C(=O)N1CCC2(CC1)OCCO2 | 1000 s
Cc1oc2ccn(Cc3ccc(F)cc3)c(=O)c2c1C(=O)NCC1CC1 | 988 s
CC(C(=O)NCCCN1CCN(C)CC1)n1c(=O)c(C(F)(F)F)nc2ccccc21 (stereo not given) | 603 s
Cc1ccc(S(=O)(=O)N2CCC3(CC2)NCCN=C3NCc2cc(F)cc(F)c2)cc1C | 798 s
CCNc1cc(N2CCC(CCC(=O)NC3CCN(C(=O)OCC)CC3)CC2)ncn1 | 620 s
Cc1ccccc1-c1nc2cnccn2c1NCCC(=O)NCc1ccco1 | 624 s
Cc1ccccc1S(=O)(=O)N1CCC2(CC1)NCCN=C2NCc1ccc(F)cc1 | 730 s
COc1cccc(N2CCN(Cc3nc(-c4ccc(N5CCCCC5)nc4)no3)CC2)c1 | 930 s
CCOC(=O)c1ccc(NS(=O)(=O)N2CCOCC2)cc1 | 724 s
O=C(CC1CCN(S(=O)(=O)c2ccc(Cl)s2)CC1)N1CCN(c2ccccn2)CC1 | 672 s
COc1cccc(-c2nnc(Cc3nc(-c4ccc(Br)cc4)no3)o2)c1 | 1100 s
Cc1nnc2cc(N3CCN(C(=O)Nc4cccc(F)c4)CC3)cnn12 | 624 s
COc1cccc(C2CC(c3ccc(F)cc3)=NC3(CCN(C)CC3)N2)c1O (stereo not given) | 590 s
CC(=O)Nc1ccc(S(=O)(=O)N2CCN(c3cnn4c(C)nnc4c3)CC2)cc1 | 593 s
CCn1cnc(S(=O)(=O)N2CCC(C(=O)N3CCN(c4cccc(Cl)c4)CC3)CC2)c1 | 825 s
COc1ccc(N2CCN(S(=O)(=O)N(C)C)CC2)cc1 | 736 s
CCCCN(C)C(=O)C(C)n1nc(C)c2nn(-c3ccccc3)c(-n3cccc3)c2c1=O (stereo not given) | 1010 s
Cc1nnc2c(NS(=O)(=O)c3ccccc3C(F)(F)F)cccn12 | 689 s
CCOc1ccc(N(C)S(=O)(=O)c2ccsc2C(=O)NC2CCCC2)cc1 | 1030 s
